In ChEMBL document CHEMBL4373746, “Structural attributes influencing unbound tissue distribution” (Eur J Med Chem, 2020):

What was measured:
[1] = Drug concentration in total liver in Wistar Han rat at 1 to 2 mg/kg, iv infused for 10 to 20 hrs by LC-MS/MS analysis; details: in vivo
[2] = Total plasma concentration in Wistar Han rat at 1 to 2 mg/kg, iv infused for 10 to 20 hrs by LC-MS/MS analysis; details: in vivo
[3] = Drug concentration in total skeletal muscle in Wistar Han rat at 1 to 2 mg/kg, iv infused for 10 to 20 hrs by LC-MS/MS analysis; details: in vivo
[4] = Fraction unbound in Wistar Han rat skeletal muscle at 2 uM incubated for 6 hrs by equilibrium dialysis method
[5] = Drug concentration in total brain in Wistar Han rat at 1 to 2 mg/kg, iv infused for 10 to 20 hrs by LC-MS/MS analysis; details: in vivo
[6] = Drug concentration in total heart in Wistar Han rat at 1 to 2 mg/kg, iv infused for 10 to 20 hrs by LC-MS/MS analysis; details: in vivo
[7] = Fraction unbound in Wistar Han rat heart at 2 uM incubated for 6 hrs by equilibrium dialysis method
[8] = Fraction unbound in Wistar Han rat liver at 2 uM incubated for 6 hrs by equilibrium dialysis method
[9] = Unbound tissue partition coefficient, ratio of drug level in adipose to plasma in Wistar Han rat at 1 to 2 mg/kg, iv infused for 10 to 20 hrs by LC-MS/MS analysis; details: adipose/plasma
[10] = Drug concentration in total white adipose tissue in Wistar Han rat at 1 to 2 mg/kg, iv infused for 10 to 20 hrs by LC-MS/MS analysis; details: in vivo
[11] = Fraction unbound in Wistar Han rat brain at 2 uM incubated for 6 hrs by equilibrium dialysis method
[12] = Apparent permeability of the compound across dog RRCK cells by MDCK-LE assay
[13] = Fraction unbound in Wistar Han rat white adipose tissue at 2 uM incubated for 6 hrs by equilibrium dialysis method
[14] = Unbound tissue partition coefficient, ratio of drug level in heart to plasma in Wistar Han rat at 1 to 2 mg/kg, iv infused for 10 to 20 hrs by LC-MS/MS analysis; details: heart/plasma
[15] = Unbound tissue partition coefficient, ratio of drug level in brain to plasma in Wistar Han rat at 1 to 2 mg/kg, iv infused for 10 to 20 hrs by LC-MS/MS analysis; details: brain/plasma
[16] = Unbound tissue partition coefficient, ratio of drug level in liver to plasma in Wistar Han rat at 1 to 2 mg/kg, iv infused for 10 to 20 hrs by LC-MS/MS analysis; details: liver/plasma
[17] = Unbound tissue partition coefficient, ratio of drug level in skeletal muscle to plasma in Wistar Han rat at 1 to 2 mg/kg, iv infused for 10 to 20 hrs by LC-MS/MS analysis; details: skeletal muscle/plasma
[18] = Fraction unbound in Wistar Han rat plasma at 2 uM incubated for 6 hrs by equilibrium dialysis method

Structure (SMILES)	Ct [1] [ng/mL]	Cp [2] [ng/mL]	Ct [3] [ng/mL]	fraction unbound at 6 h, 2 µM [4]	Ct [5] [ng/mL]	Ct [6] [ng/mL]	fraction unbound at 6 h, 2 µM [7]	fraction unbound at 6 h, 2 µM [8]	Kp uu [9]	Ct [10] [ng/mL]	fraction unbound at 6 h, 2 µM [11]	Papp [12] [×10⁻⁶ cm/s]	fraction unbound at 6 h, 2 µM [13]	Kp uu [14]	Kp uu [15]	Kp uu [16]	Kp uu [17]	fraction unbound at 6 h, 2 µM [18]
CC1(C)CN(CCC#N)C(=O)[C@@H]1Oc1ccc(C#N)c(C(F)(F)F)c1	500	160	110	0.263	91	210	0.152	0.122	0.81	250	0.0717	40	0.185	0.55	0.11	1	0.48	0.358
CCCC(Oc1ccc(-n2cc3ccccc3n2)cc1)c1ccc(C(=O)NCCC(=O)O)cc1 (centres undefined)	420	68	12	0.00584	1.9	80	0.00543	0.00607	0.024	0.77	0.00341	9.9	0.105	1.8	0.018	14	0.38	0.0034
C[C@H]1c2cccc(CCC(C)(C)O)c2C[C@H](CO)N1C(=O)Cc1c(Cl)cccc1Cl	690	150	95	0.0161	39	190	0.016	0.0158	4.9	110	0.0113	27	0.0547	2.3	0.35	9.8	1.3	0.012
COc1ccc(-c2cc3c(S(=O)(=O)O)c[nH]c3cc2Cl)cc1	380	330	16	0.0546	4.2	82	0.0523	0.0303	3.8	15	0.0414	2.3	0.347	2.9	0.13	8.7	0.6	0.00473
O=C(O)c1c[nH]c2cc(Cl)c(-c3ccc(CC(=O)N4CCOCC4)cc3)cc12	210	72	0.89	0.133	0.38	21	0.0746	0.0789	1.6	2	0.181	2.4	0.386	3.4	0.0018	40	0.16	0.00645
C[C@H]1C[C@H]2CSC(N)=N[C@@]2(c2cc(C#N)ccc2F)CO1	990	84	240	0.344	230	380	0.668	0.548	1.4	86	0.573	29	1	3.9	2.1	8.5	1.3	0.796
N#Cc1ccc(N2N=C(N3CCC(C(=O)N4CCC(O)CC4)CC3)C[C@H]2C2CCCC2)cc1Cl	1000	240	150	0.00952	16	550	0.00283	0.00991	5.9	120	0.00431	20	0.109	0.68	0.029	4.3	0.59	0.00962

Further lines, results first:

Ct [1] [ng/mL]	Cp [2] [ng/mL]	Ct [3] [ng/mL]	fraction unbound at 6 h, 2 µM [4]	Ct [5] [ng/mL]	Ct [6] [ng/mL]	fraction unbound at 6 h, 2 µM [7]	fraction unbound at 6 h, 2 µM [8]	Kp uu [9]	Ct [10] [ng/mL]	fraction unbound at 6 h, 2 µM [11]	Papp [12] [×10⁻⁶ cm/s]	fraction unbound at 6 h, 2 µM [13]	Kp uu [14]	Kp uu [15]	Kp uu [16]	Kp uu [17]	fraction unbound at 6 h, 2 µM [18]	Structure (SMILES)
360	81	110	0.114	15	260	0.076	0.125	0.16	20	0.0553	5.8	0.132	1.2	0.048	2.7	0.71	0.212	COc1ccc(Cc2cc([C@@H]3OC4(COC4)[C@@H](O)[C@H](O)[C@H]3O)ccc2C)cc1
400	54	16	0.00211	1	86	0.00108	0.00258	0.36	4.7	0.00176	5.3	0.0322	0.19	0.0025	2.2	0.08	0.0104	CC(C)(CC1Cc2ccccc2C1)NC[C@@H](O)COc1cc(C2CC3CC2C2C(C(=O)O)C32)ccc1C#N (some centres undefined)
420	28	97	0.138	2.3	190	0.0941	0.0749	1.6	79	0.0543	15	0.205	1.8	0.013	3.3	1.4	0.362	CN(C)C[C@@H](OC(=O)N1Cc2c(NC(=O)C3(C(F)(F)F)CC3)n[nH]c2C1(C)C)c1ccccc1
960	42	170	0.0483	14	410	0.057	0.0394	2.4	28	0.0227	24	0.393	5.3	0.078	9.4	2	0.0995	O=C(c1cccc(N2CCNCC2)n1)N1CCC(c2ccccc2F)CC1
860	120	18	0.00554	1.5	59	0.00542	0.00643	2.5	8	0.00251	7.9	0.089	1.1	0.0089	18	0.3	0.00273	O=C(O)[C@@H]1CCCN(C(=O)n2cnc(-c3ccc(-c4cnc(N5CCOCC5)nc4)cc3)n2)[C@H]1c1ccccc1
170	30	68	0.385	3.4	110	0.341	0.375	0.51	27	0.0796	21	0.329	2.2	0.015	3.8	1.5	0.614	COCCCN1C[C@H](C)N(C(=O)N2Cc3c(NC(=O)c4ccccn4)n[nH]c3C2(C)C)C[C@H]1C
